Measured values from publication PMC11722285, “Exploring the Potential of Malvidin and Echiodinin as Probable Antileishmanial Agents Through In Silico Analysis and In Vitro Efficacy” (Molecules, 2025).
Read-outs that look alike come from different tables or passages of the source.

Assays:
Type in all cases: cell-based
[1] = test system: L. amazonensis axenic amastigotes; experiment: In vitro antileishmanial activity, axenic amastigotes (MTT); settings: for IC50: 48 h, axenic amastigotes, mean ± SD, read-out: IC50 (µM) Axenic amastigotes L. amazonensis
Procedure: (§1) L. amazonensis (IFLA/BR/1967/PH-8), L. braziliensis (MHOM/BR/1975/M2903), and L. infantum (MHOM/BR/1970/BH46) were used as parasites. Stationary promastigotes were grown at a 24 °C in complete Schneider’s medium (Sigma-Aldrich, St. Louis, MO, USA), which was composed of medium plus 20% (v/v) heat-inactivated fetal bovine serum (FBS; Sigma-Aldrich, USA) and 20 mM L-glutamine with a pH of 7.4 [139]. To obtain the axenic amastigotes, 10^9 stationary promastigotes were washed three times in sterile phosphate-buffered saline (PBS 1X and incubated in 5 mL FBS for 48 h (L. amazonensis and L. braziliensis) and 72 h (L. infantum), respectively, at 37 °C. Parasites were washed in cold PBS 1x, and their morphology was evaluated after staining using the Giemsa method in an optical microscope, as previously described.
(§2) AmpB (0 to 10.8 µM; Sigma-Aldrich, USA) was used as control. Cell viability was assessed through 3-(4.5-dimethylthiazol-2-yl)-2.5-diphenyl tetrazolium bromide (Sigma-Aldrich, USA) method. Optical density (OD) values were measured in a microplate spectrophotometer (Molecular Devices, Spectra Max Plus, San Jose, CA, USA) at 570 nm. IC50 values were calculated by sigmoidal regression of dose–response curves in Microsoft Excel software (version 10.0). Two-tailed Student’s t-tests (p < 0.05) were used to compare IC50 values between malvidin and echioidinin, assessing significant differences in inhibitory activity.

[2] = test system: L. infantum axenic amastigotes; experiment: as above
Procedure: as §1, §2

[3] = test system: L. braziliensis axenic amastigotes; experiment: as above
Procedure: as §1, §2

[4] = test system: L. amazonensis stationary promastigotes; experiment: In vitro antileishmanial activity, stationary promastigotes (MTT); settings: for IC50: 48 h, stationary promastigotes, mean ± SD, read-out: IC50 (µM) Stationary Promastigotes L. amazonensis
Procedure: as §1, §2

[5] = test system: L. braziliensis stationary promastigotes; experiment: as above
Procedure: as §1, §2

[6] = test system: L. infantum stationary promastigotes; experiment: as above
Procedure: as §1, §2

O+ human red blood cells = experiment: Hemolytic activity; settings: human, 1 h
Procedure: Cytotoxicity was evaluated ex vivo in murine macrophages and human red blood cells, for which concentrations inhibiting 50% of macrophages (CC50) and red blood cells (RBC50) were determined. Briefly, murine cells (5 × 10^5) or a 5% human red blood cells suspension were incubated in the presence of malvidin (0 to 301.84 µM) or echioidinin (0 to 356.76 µM) AmpB (0 to 10.82 µM) was used as control. Cells were incubated in RPMI 1640 medium for 48 h (murine macrophages) or 1 h (red blood cells) at 37 °C in 5% CO2. Macrophage viability was assessed using the MTT method. The red blood cell suspension was centrifuged at 1000× g for 10 min at 4 °C, after which the percentage of cell lysis was evaluated spectrophotometrically at 570 nm. The hemolysis was determined by replacing the natural products with an equal volume of phosphate-buffered saline with a pH of 7.4 (PBS—negative control) or distilled water (positive control). CC50 and RBC50 values were calculated by sigmoidal regression of dose–response curves in Microsoft Excel software (version 10.0). SI was calculated as the ratio between CC50 and IC50 values.

[7] = test system: L. braziliensis-infected murine macrophages; experiment: Treatment of infected macrophages; settings: 48 h
Procedure: (§3) To evaluate the efficacy of malvidin or echioidinin for treating infected macrophages, murine cells (5 × 10^5) were plated on round glass coverslips in 24-well plates in RPMI 1640 medium supplemented with 20% (v/v) FBS and 20 mM L-glutamine at a pH of 7.4 and incubated for 24 h at 37 °C in 5% CO2. Stationary promastigotes were added to the wells at a ratio of 10 parasites per macrophage, and cultures were incubated further for 48 h at 37 °C for 5% CO2. Free parasites were removed by extensive washing with RPMI 1640 medium, and infected macrophages were treated with malvidin (30.18, 60.37, and 120.74 µM), echioidinin (35.18, 70.36, and 140.72 µM), or AmpB (2.70 and 5.41 µM) for 48 h at […] in 5% CO2. After fixation with 4% paraformaldehyde, cells were washed and stained with Giemsa, and the infection percentage, the number of amastigotes per infected macrophage, and the reduction in the infection percentage were determined by counting 200 cells in triplicate, using an optical microscope.

[8] = test system: L. amazonensis-infected murine macrophages; experiment: Treatment of infected macrophages; settings: 48 h
Procedure: as §3

[9] = test system: L. infantum-infected murine macrophages; experiment: Treatment of infected macrophages; settings: 48 h
Procedure: as §3

[10] = ratio between CC50 (macrophages) and IC50

Structure (SMILES): C[C@@H]1[C@H](O)[C@@H](C)/C=C/C=C/C=C/C=C/C=C/C=C/C=C/[C@H](O[C@@H]2O[C@H](C)[C@@H](O)[C@H](N)[C@@H]2O)C[C@@H]2O[C@](O)(C[C@@H](O)C[C@@H](O)[C@H](O)CC[C@@H](O)C[C@@H](O)CC(=O)O[C@H]1C)C[C@H](O)[C@H]2C(=O)O [AmpB, amphotericin B, reference compound]
- IC50 ([1]; Leishmania amazonensis): 0.1 ± 0.03 µM
- IC50 [1]: 0.09 ± 0.02 µM
- Selectivity Index (SI) Axenic amastigotes L. amazonensis [1, 10]: 11.00
- IC50 ([2]; Leishmania infantum, axenic amastigotes, 48 h, mean ± SD, read-out: IC50 (µM) Axenic amastigotes L. infantum): 0.08 ± 0.02 µM
- Selectivity Index (SI) Axenic amastigotes L. infantum [2, 10]: 12.60
- IC50 ([3]; Leishmania braziliensis, axenic amastigotes, 48 h, mean ± SD, read-out: IC50 (µM) Axenic amastigotes L. braziliensis): 0.1 ± 0.03 µM
- Selectivity Index (SI) Axenic amastigotes L. braziliensis [3, 10]: 9.80
- IC50 ([4]; Leishmania amazonensis): 0.06 ± 0.01 µM
- Selectivity Index (SI) Stationary Promastigotes L. amazonensis [4, 10]: 12.60
- IC50 [4]: 0.08 ± 0.02 µM
- IC50 ([5]; Leishmania braziliensis, stationary promastigotes, 48 h, mean ± SD, read-out: IC50 (µM) Stationary Promastigotes L. braziliensis): 0.09 ± 0.03 µM
- Selectivity Index (SI) Stationary Promastigotes L. braziliensis [5, 10]: 11.00
- IC50 ([6]; Leishmania infantum, stationary promastigotes, 48 h, mean ± SD, read-out: IC50 (µM) Stationary Promastigotes L. infantum): 0.06 ± 0.01 µM
- Selectivity Index (SI) Stationary Promastigotes L. infantum [6, 10]: 14.70
- RBC50 (O+ human red blood cells): 14.28 ± 1 µM
- Infection After Treatment (%) ([7]; 2.71 µM): 24.40%
- Infectiveness Reduction (%) ([7]; 2.71 µM): 64.48%
- Number of Amastigotes per Macrophage ([7]; 2.71 µM): 2.60
- Infection After Treatment (%) ([7]; 5.41 µM): 16.50%
- Infectiveness Reduction (%) ([7]; 5.41 µM): 75.98%
- Number of Amastigotes per Macrophage ([7]; 5.41 µM): 2.40
- Infection After Treatment (%) ([8]; 2.71 µM): 34.30%
- Infectiveness Reduction (%) ([8]; 2.71 µM): 62.84%
- Number of Amastigotes per Macrophage ([8]; 2.71 µM): 2.60
- Infection After Treatment (%) ([8]; 5.41 µM): 24.20%
- Infectiveness Reduction (%) ([8]; 5.41 µM): 73.78%
- Number of Amastigotes per Macrophage ([8]; 5.41 µM): 2.80
- Infection After Treatment (%) ([9]; 2.71 µM): 28.70%
- Infectiveness Reduction (%) ([9]; 2.71 µM): 61.48%
- Number of Amastigotes per Macrophage ([9]; 2.71 µM): 3.00
- Infection After Treatment (%) ([9]; 5.41 µM): 19.80%
- Infectiveness Reduction (%) ([9]; 5.41 µM): 73.42%
- Number of Amastigotes per Macrophage ([9]; 5.41 µM): 2.50
